Key:
5-lipoxygenase (5-LO) = target: T1, 5-lipoxygenase (5-LO) (Homo sapiens, UniProt P09917); assay: In vitro inhibition of 5-lipoxygenase (5-LO) in homogenised leukocytes, radioimmunoassay for leucotriene B4; format: biochemical; details: homogenised leukocytes from blood of normal aspirin-free volunteers; 5µM arachidonic acid, 37°C, 5 minutes; leucotriene B₄ by radioimmunoassay; read-out: IC₅₀(µM) activity LO
T1 construct: The leukocytes were homogenised and 5µM arachidonic acid added; from tissue; host or cells: homogenised leukocytes from blood of volunteers
T1 sequence (P09917 1-674): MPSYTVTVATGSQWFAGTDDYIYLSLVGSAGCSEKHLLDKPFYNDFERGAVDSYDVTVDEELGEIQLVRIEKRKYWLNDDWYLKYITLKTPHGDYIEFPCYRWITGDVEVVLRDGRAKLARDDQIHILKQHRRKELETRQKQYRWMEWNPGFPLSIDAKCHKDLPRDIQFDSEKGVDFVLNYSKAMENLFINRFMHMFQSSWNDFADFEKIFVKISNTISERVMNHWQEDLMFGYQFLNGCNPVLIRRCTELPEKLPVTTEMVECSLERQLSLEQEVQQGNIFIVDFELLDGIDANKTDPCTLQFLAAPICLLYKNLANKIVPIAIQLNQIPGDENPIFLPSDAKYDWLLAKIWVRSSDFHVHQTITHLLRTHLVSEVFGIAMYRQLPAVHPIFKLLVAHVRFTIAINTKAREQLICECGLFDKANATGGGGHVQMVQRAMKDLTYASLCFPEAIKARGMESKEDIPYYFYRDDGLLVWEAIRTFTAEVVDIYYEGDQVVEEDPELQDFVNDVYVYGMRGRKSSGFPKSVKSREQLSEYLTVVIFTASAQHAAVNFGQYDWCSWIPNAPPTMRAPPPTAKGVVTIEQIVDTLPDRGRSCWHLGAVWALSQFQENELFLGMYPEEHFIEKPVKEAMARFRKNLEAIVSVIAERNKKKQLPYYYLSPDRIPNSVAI
Description: (§1) In vitro inhibition of 5-lipoxygenase (5-LO) and cyclo-oxygenase (CO)
(§2) Blood from normal aspirin-free volunteers was centrifuged to separate leukocytes from red cells and platelets. The leukocytes were homogenised and 5µM arachidonic acid added, followed by incubation at 37 °C for 5 minutes. The reaction was stopped by boiling and radioimmunoassays conducted for leucotriene B₄ and thromboxane B₂, products derived from 5-lipoxygenase and cyclo-oxygenase respectively. Results were calculated as IC₅₀(µM) activity against each enzyme.

cyclo-oxygenase (CO) = target: T2, cyclo-oxygenase (CO) (Homo sapiens, UniProt P23219); assay: In vitro inhibition of cyclo-oxygenase (CO) in homogenised leukocytes, radioimmunoassay for thromboxane B2; format: biochemical; details: homogenised leukocytes from blood of normal aspirin-free volunteers; 5µM arachidonic acid, 37°C, 5 minutes; thromboxane B₂ by radioimmunoassay; read-out: IC₅₀(µM) activity CO
T2 construct: The leukocytes were homogenised and 5µM arachidonic acid added; from tissue; host or cells: homogenised leukocytes from blood of volunteers
Description: as §1, §2

T2 sequence (P23219 24-599): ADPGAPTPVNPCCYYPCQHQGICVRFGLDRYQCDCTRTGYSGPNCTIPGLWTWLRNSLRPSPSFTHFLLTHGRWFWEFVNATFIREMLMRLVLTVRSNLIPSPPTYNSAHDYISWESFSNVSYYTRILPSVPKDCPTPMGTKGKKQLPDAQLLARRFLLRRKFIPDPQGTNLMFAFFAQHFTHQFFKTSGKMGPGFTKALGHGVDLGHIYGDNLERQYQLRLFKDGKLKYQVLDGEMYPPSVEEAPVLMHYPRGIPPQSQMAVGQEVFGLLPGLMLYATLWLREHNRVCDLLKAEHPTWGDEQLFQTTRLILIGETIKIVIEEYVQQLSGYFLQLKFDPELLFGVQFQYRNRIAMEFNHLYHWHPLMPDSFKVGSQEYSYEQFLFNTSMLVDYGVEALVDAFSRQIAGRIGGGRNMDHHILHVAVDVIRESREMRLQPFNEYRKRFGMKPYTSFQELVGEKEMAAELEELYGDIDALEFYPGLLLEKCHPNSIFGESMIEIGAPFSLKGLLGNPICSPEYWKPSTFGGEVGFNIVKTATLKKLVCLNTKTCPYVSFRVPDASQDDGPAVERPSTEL

**Q.** With CC(=O)N(O)[C@@H](C)/C=C/c1cccc(Oc2ccc(F)cc2)c1 [Synthetic Example, (E)-N-{1(S)-methyl-3-[3-(4-fluorophenoxy)phenyl]prop-2-en-1-yl}acetohydroxamic acid] as the molecule, how does the IC50 (5-lipoxygenase (5-LO)) read?
**A.** Its IC50 is 0.15 µM.

**Q.** What about the IC50 (cyclo-oxygenase (CO)) of the same molecule?
**A.** The IC50 was 3 µM.

Reference: patent EP0351214A1, “Anti-inflammatory aryl derivatives” (THE WELLCOME FOUNDATION LIMITED, priority 1988, dated 1990)
